From PubChem BioAssay AID1918932 (Molecular Pharmacology Branch, DTP, NCI, 2023)
pIC50: −log10 of the molar value.

Tested on: 171881-019-R-J1-PDC complex spheroid viability
Test: Anticancer human tumor 171881-019-R-J1-PDC patient-derived invasive breast carcinoma cell line growth inhibition
Settings: for pIC50: curve of first compound; for viability, T/C: stronger effect = lower value
Outline: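 Drug combinations with the LSD1 inhibitor iadademstat tested on tumor cells co-cultured as spheroids with endothelial cells and mesenchymal stem cells. Concentrations descended in half-log increments from clinical Cmax or 10 microM.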

[1] = second compound 0.1 µM, first compound 0.0316 µM
[2] = second compound 0.1 µM, first compound 0.1 µM
[3] = second compound 0.1 µM, first compound 0.316 µM
[4] = second compound 0.1 µM, first compound 1 µM
[5] = second compound 0.1 µM, first compound 3.16 µM
[6] = second compound 0.1 µM, first compound 10 µM
[7] = second compound 0.316 µM, first compound 0.0316 µM
[8] = second compound 0.316 µM, first compound 0.1 µM
[9] = second compound 0.316 µM, first compound 0.316 µM
[10] = second compound 0.316 µM, first compound 1 µM
[11] = second compound 0.316 µM, first compound 3.16 µM
[12] = second compound 0.316 µM, first compound 10 µM
[13] = second compound 1 µM, first compound 0.0316 µM
[14] = second compound 1 µM, first compound 0.1 µM
[15] = second compound 1 µM, first compound 0.316 µM
[16] = second compound 1 µM, first compound 1 µM
[17] = second compound 1 µM, first compound 3.16 µM
[18] = second compound 1 µM, first compound 10 µM
[19] = second compound 3.16 µM, first compound 0.0316 µM
[20] = second compound 3.16 µM, first compound 0.1 µM
[21] = second compound 3.16 µM, first compound 0.316 µM
[22] = second compound 3.16 µM, first compound 1 µM
[23] = second compound 3.16 µM, first compound 3.16 µM
[24] = second compound 3.16 µM, first compound 10 µM
[25] = second compound 10 µM, first compound 0.0316 µM
[26] = second compound 10 µM, first compound 0.1 µM
[27] = second compound 10 µM, first compound 0.316 µM
[28] = second compound 10 µM, first compound 1 µM
[29] = second compound 10 µM, first compound 3.16 µM
[30] = second compound 10 µM, first compound 10 µM
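Note: spheroids exposed to agents for 7 days after 3 days growth.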

SMILES	pIC50 (second compound 0.1 µM)	pIC50 (second compound 0.316 µM)	pIC50 (second compound 1 µM)	pIC50 (second compound 3.16 µM)	pIC50 (second compound 10 µM)	viability, T/C [1] [%]	viability, T/C [2] [%]	viability, T/C [3] [%]	viability, T/C [4] [%]	viability, T/C [7] [%]	viability, T/C [8] [%]	viability, T/C [9] [%]	viability, T/C [10] [%]	viability, T/C [13] [%]	viability, T/C [14] [%]	viability, T/C [15] [%]	viability, T/C [16] [%]	viability, T/C [19] [%]	viability, T/C [20] [%]	viability, T/C [21] [%]	also measured
CC(C)c1c(-c2ccccc2)nc2c(C#N)c[nH]n2c1=O + NC1CC1c1ccc(-c2cccc(O)c2)cc1	5.30	5.27	5.27	5.26	5.31	104	103	93	87.3	102	102	95.8	90.4	108	101	93.9	89.5	103	98.6	97	viability, T/C [5]: 72.1%; viability, T/C [6]: 19.8%; viability, T/C [11]: 75.5%; viability, T/C [12]: 22.1%; viability, T/C [17]: 75.7%; viability, T/C [18]: 22.5%; viability, T/C [22]: 87.4%; viability, T/C [23]: 77.1%; viability, T/C [24]: 22%; viability, T/C [25]: 85.7%; viability, T/C [26]: 81.9%; viability, T/C [27]: 81.4%; viability, T/C [28]: 80.5%; viability, T/C [29]: 70.6%; viability, T/C [30]: 18.1%
CC1COCCN1c1cc(-c2ccnn2C)c2ccnc(-c3ccn[nH]3)c2n1 (stereo not given) + NC1CC1c1ccc(-c2cccc(O)c2)cc1	8.22	8.32	8.36	8.18	8.30	23.1	9.09	6.72	6.42	23.6	9.96	6.7	5.87	25.3	9.83	6.55	5.67	23.8	8.53	5.95	viability, T/C (second compound 0.1 µM, first compound 0.00316 µM): 54.6%; viability, T/C (second compound 0.1 µM, first compound 0.01 µM): 46.5%; viability, T/C (second compound 0.316 µM, first compound 0.00316 µM): 53.6%; viability, T/C (second compound 0.316 µM, first compound 0.01 µM): 43.5%; viability, T/C (second compound 1 µM, first compound 0.00316 µM): 51.1%; viability, T/C (second compound 1 µM, first compound 0.01 µM): 47%; viability, T/C (second compound 3.16 µM, first compound 0.00316 µM): 56%; viability, T/C (second compound 3.16 µM, first compound 0.01 µM): 46.4%; viability, T/C [22]: 5.45%; viability, T/C (second compound 10 µM, first compound 0.00316 µM): 54.1%; viability, T/C (second compound 10 µM, first compound 0.01 µM): 44%; viability, T/C [25]: 22.4%; viability, T/C [26]: 12.8%; viability, T/C [27]: 7.13%; viability, T/C [28]: 6.24%
COc1ccc([C@@H](O)c2cc(-c3ncnc4cc(N5CCOCC5)ccc34)c(F)cc2Cl)nn1 + NC1CC1c1ccc(-c2cccc(O)c2)cc1	6.20	6.17	6.12	6.09	6.22	100	99.9	78.9	30.5	103	100	81.2	34.4	108	107	85.9	39.2	104	106	92.1	viability, T/C [5]: 7.18%; viability, T/C [6]: 11%; viability, T/C [11]: 8.07%; viability, T/C [12]: 11%; viability, T/C [17]: 8.76%; viability, T/C [18]: 9.94%; viability, T/C [22]: 40.8%; viability, T/C [23]: 7.82%; viability, T/C [24]: 10.7%; viability, T/C [25]: 84.8%; viability, T/C [26]: 88.6%; viability, T/C [27]: 75.2%; viability, T/C [28]: 30.6%; viability, T/C [29]: 8.18%; viability, T/C [30]: 9.78%
